Values quoted from earlier work as cited in US6365551B1, “Highly concentrated glyphosate herbicidal compositions” (Monsanto Technology LLC, priority 1990, dated 2002).

Conditions: glyphosate in acid form

## O=C(O)CNCP(=O)(O)O [glyphosate, N-phosphonomethylglycine]
  water solubility: about 1.2%
